# According to patent EP2730577A1, “CRYSTAL MODIFICATION OF A PARA-METHOXYANILIDE OF 6-HYDROXY-4-OXO-2,4,DIHYDRO-1H-PYRROLO[3,2,1-IJ]-QUINOLINE-5-CARBOXYLIC ACID” (Otkrytoe Aktsionernoe Obschestvo Mezhdunarodnaya, priority 2012, dated 2013):
# What was measured:
# white rats [1] = assay: Diuretic effect (urinary excretion) in rats after oral administration; format: in vivo; conditions: for Diuresis after 5 hr.: 10 mg/kg orally as a fine suspension in water stabilized with Tween-80, after water load, urine excreted over 5 hrs, control 4.3 ± 0.20 ml, 10 mg/kg; for Diuretic effect: 5 hr, relative to control = 100, 10 mg/kg
# Protocol: Example 6. Diuretic effect of the novel crystal modification (β-form) of 6-hydroxy-4-oxo-2,4-dihydro-1H-pyrrolo[3,2,1-ij]-quinoline-5-carboxylic acid para-metoxyanilide compared to the effect of the known crystal modification (α-form) of the same compound was studied on white rats weighing 180 - 200 g
# (12 animals per each compound) using a standard technique. All tested animals received water via a gastric tube at 5 ml per […] of body weight. The control group received the same amount of water with Tween 80. The tested substances were administered orally at 10 mg/kg (median effective dose of the known α-form) as a fine suspension in water stabilized with Tween-80. After that, the tested animals were placed into "exchange cages". The urinary excretion intensity was determined by the amount of urine excreted by the animals over a period of 5 hrs. The experimental data shown in Table 9 leads to a conclusion that the diuretic action of the novel crystal modification (β-form) of 6-hydroxy-4-oxo-2,4-dihydro-1H-pyrrolo[3,2,1-ij]-quinoline-5-carboxylic acid para-metoxyanilide exceeds that of the known α-form by an average of 19%.
# white rats [2] = conditions: diuretic effect, oral; stated for the known α-form without data of its own; cited from earlier work
Structure (SMILES),Diuresis after 5 hr. (white rats [1]),Diuretic effect (white rats [1]; 10 mg/kg orally),"diuretic action exceeds that of the known α-form (white rats [1]; 10 mg/kg orally, 5 hrs, β-form versus α-form, average)",median effective dose (white rats [2])
"COc1ccc(NC(=O)c2c(O)c3cccc4c3n(c2=O)CC4)cc1 [Novel β-form, 6-hydroxy-4-oxo-2,4-dihydro-1H-pyrrolo[3,2,1-ij]-quinoline-5-carboxylic acid para-metoxyanilide]",10.5 ± 0.27 mL,245%,19%,
"COc1ccc(NC(=O)c2c(O)c3cccc4c3n(c2=O)CC4)cc1 [Known α-form, 6-hydroxy-4-oxo-2,4-dihydro-1H-pyrrolo[3,2,1-ij]-quinoline-5-carboxylic acid para-metoxyanilide]",9.7 ± 0.28 mL,226%,,10 mg/kg
